Tests used:
eotaxin-3 release = experiment: Human whole blood eotaxin-3 assay (IL-4 stimulated); assay type: cell-based; conditions: human whole blood, IL-4 0.4 nM, 48 hours; geometric mean; given for compounds with >80% Emax; read-out: Eotaxin-3 EC50
Method in brief: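 Human whole blood was preincubated with compound for 120 min at 37 °C, then stimulated with recombinant human IL-4 (E. coli) at 0.4 nM final for 48 h. Inhibition of eotaxin-3 release gave EC50 values.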

STAT6 = STAT6 (Homo sapiens (Human), UniProt P42226); experiment: STAT6 degrader assay (HiBiT, HeLa LgBiT clone 4.14); assay type: cell-based; conditions: HeLa LgBiT clone 4.14, 4-24 h; for DC50: geometric mean, given for compounds with >80% Emax, read-out: STAT6 degradation DC50
Chain of STAT6 (P42226 whole entry): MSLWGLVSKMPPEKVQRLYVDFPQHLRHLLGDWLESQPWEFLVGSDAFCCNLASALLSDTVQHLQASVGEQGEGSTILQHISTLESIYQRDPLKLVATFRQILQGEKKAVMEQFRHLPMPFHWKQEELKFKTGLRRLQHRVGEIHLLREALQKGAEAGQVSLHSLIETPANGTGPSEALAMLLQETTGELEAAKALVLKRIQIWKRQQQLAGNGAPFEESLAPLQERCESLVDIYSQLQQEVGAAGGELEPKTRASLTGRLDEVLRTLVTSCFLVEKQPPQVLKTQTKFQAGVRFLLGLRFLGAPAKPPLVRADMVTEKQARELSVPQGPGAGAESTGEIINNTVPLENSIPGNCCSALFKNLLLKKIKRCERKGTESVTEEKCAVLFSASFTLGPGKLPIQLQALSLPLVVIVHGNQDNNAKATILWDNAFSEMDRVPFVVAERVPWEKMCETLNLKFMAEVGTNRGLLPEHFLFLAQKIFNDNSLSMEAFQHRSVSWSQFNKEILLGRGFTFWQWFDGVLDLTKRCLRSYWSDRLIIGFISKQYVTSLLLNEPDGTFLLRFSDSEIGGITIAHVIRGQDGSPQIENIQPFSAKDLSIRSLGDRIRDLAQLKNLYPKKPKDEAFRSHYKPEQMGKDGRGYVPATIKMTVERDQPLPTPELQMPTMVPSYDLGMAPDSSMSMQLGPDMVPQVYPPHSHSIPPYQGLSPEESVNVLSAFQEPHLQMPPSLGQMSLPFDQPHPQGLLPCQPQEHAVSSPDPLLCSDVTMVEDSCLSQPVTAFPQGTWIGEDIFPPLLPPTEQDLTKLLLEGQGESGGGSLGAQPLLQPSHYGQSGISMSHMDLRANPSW
Method in brief: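 DC50 (nM) comes from luminescence of non-degraded STAT6 read 0.5 h after Nano-GLO addition, following 4-24 h compound exposure at 37° C. Cells were HeLa clone 4.14 expressing LgBiT with a CRISPR HiBiT tag on endogenous STAT6; 50 μM terfenadine set full degradation.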

| Compound | EC50 (eotaxin-3 release) [nM] | DC50 (STAT6) [nM] | Emax (STAT6; read-out: STAT6 degradation Emax (%)) [%] |
| --- | --- | --- | --- |
| C[C@H]1CN(Cc2ccc3c(c2)n(C)c(=O)n3C2CCC(=O)NC2=O)CCN1CC1CCN(C(=O)c2ccc(C3CCN(Cc4cc5c(-c6ccc(N)nc6)ccnc5n4C)CC3)cc2)CC1 (stereo partly drawn) [Example 3e9, 3-(5-(((S)-4-((1-(4-(1-((4-(6-aminopyridin-3-yl)-1-methyl-1H-pyrrolo[2,3-b]pyridin-2-yl)methyl)piperidin-4-yl)benzoyl)piperidin-4-yl)methyl)-3-methylpiperazin-1-yl)methyl)-3-methyl-2-oxo-2,3-dihydro-1H-benzo[d]imidazol-1-yl)piperidine-2,6-dione] | 31 | 0.75 |  |
| C[C@@H](c1cc2c(-c3ccc(N)nc3)ccnc2n1C)N1CCC(c2ccc(C(=O)N3CCC(CN4CCN(Cc5cc6c(cc5F)n(C5CCC(=O)NC5=O)c(=O)n6C5CC5)CC4)CC3)cc2)CC1 (stereo partly drawn) [Example 3e35, 3-(5-((4-((1-(4-(1-((S)-1-(4-(6-aminopyridin-3-yl)-1-methyl-1H-pyrrolo[2,3-b]pyridin-2-yl)ethyl)piperidin-4-yl)benzoyl)piperidin-4-yl)methyl)piperazin-1-yl)methyl)-3-cyclopropyl-6-fluoro-2-oxo-2,3-dihydro-1H-benzo[d]imidazol-1-yl)piperidine-2,6-dione] | 7.9 | 3.2 |  |
| C[C@H]1CN(Cc2ccc3c(c2)n(C)c(=O)n3C2CCC(=O)NC2=O)CCN1CC1CCN(C(=O)c2ccc(C3CCN([C@@H](C)c4cc5c(-c6ccc(N)cn6)ccnc5n4C)CC3)cc2)CC1 (stereo partly drawn) [Example 3e56, 3-(5-(((S)-4-((1-(4-(1-((S)-1-(4-(5-aminopyridin-2-yl)-1-methyl-1H-pyrrolo[2,3-b]pyridin-2-yl)ethyl)piperidin-4-yl)benzoyl)piperidin-4-yl)methyl)-3-methylpiperazin-1-yl)methyl)-3-methyl-2-oxo-2,3-dihydro-1H-benzo[d]imidazol-1-yl)piperidine-2,6-dione] | 2.6 | 0.4 |  |
| C[C@@H](c1cc2c(-c3ccc(N)nc3)ccnc2n1C)N1CCC(c2ccc(C(=O)N3CCC(CN4CCN(Cc5cc6c(cc5F)n(C5CCC(=O)NC5=O)c(=O)n6C)CC4)CC3)cc2)CC1 (stereo partly drawn) [Example 3e33, 3-(5-((4-((1-(4-(1-((S)-1-(4-(6-aminopyridin-3-yl)-1-methyl-1H-pyrrolo[2,3-b]pyridin-2-yl)ethyl)piperidin-4-yl)benzoyl)piperidin-4-yl)methyl)piperazin-1-yl)methyl)-6-fluoro-3-methyl-2-oxo-2,3-dihydro-1H-benzo[d]imidazol-1-yl)piperidine-2,6-dione] | 4.9 | 1.8 |  |
| C[C@@H](c1cc2c(-c3ccc(N)nc3)ccnc2n1C)N1CCC(c2ccc(C(=O)N3CCC(CN4CCN(Cc5ccc6c(c5)n(CCO)c(=O)n6C5CCC(=O)NC5=O)CC4)CC3)cc2)CC1 (stereo partly drawn) [Example 3e36, 3-(5-((4-((1-(4-(1-((S)-1-(4-(6-aminopyridin-3-yl)-1-methyl-1H-pyrrolo[2,3-b]pyridin-2-yl)ethyl)piperidin-4-yl)benzoyl)piperidin-4-yl)methyl)piperazin-1-yl)methyl)-3-(2-hydroxyethyl)-2-oxo-2,3-dihydro-1H-benzo[d]imidazol-1-yl)piperidine-2,6-dione] | 23.7 |  | 70 to 80 |
| C[C@H]1CN(Cc2ccc3c(c2)n(C2CC2)c(=O)n3[C@H]2CCC(=O)NC2=O)CCN1CC1CCN(C(=O)c2ccc(C3CCN([C@@H](C)c4cc5c(-c6ccc(N)nc6)ccnc5n4C)CC3)cc2)CC1 (single isomer, unassigned) [Example 3e50] | 2.3 | 1 |  |
| CC[C@H]1CN(Cc2ccc3c(c2)n(C2CC2)c(=O)n3[C@H]2CCC(=O)NC2=O)CCN1CC1CCN(C(=O)c2ccc(C3CCN([C@@H](C)c4cc5c(-c6ccc(N)nc6)ccnc5n4C)CC3)cc2)CC1 (single isomer, unassigned) [Example 3e65] | 5.4 | 2.6 |  |
| C[C@@H](c1cc2c(-c3ccc(N)nc3)ccnc2n1C)N1CCC(c2ccc(C(=O)N3CCC(CN4CCN(Cc5ccc6c(c5)n(CC5CC5)c(=O)n6C5CCC(=O)NC5=O)CC4)CC3)cc2)CC1 (stereo partly drawn) [Example 3e53, 3-(5-((4-((1-(4-(1-((S)-1-(4-(6-aminopyridin-3-yl)-1-methyl-1H-pyrrolo[2,3-b]pyridin-2-yl)ethyl)piperidin-4-yl)benzoyl)piperidin-4-yl)methyl)piperazin-1-yl)methyl)-3-(cyclopropylmethyl)-2-oxo-2,3-dihydro-1H-benzo[d]imidazol-1-yl)piperidine-2,6-dione] | 7.5 | 1.9 |  |
| C[C@H]1CN(Cc2ccc3c(c2)n(C)c(=O)n3[C@H]2CCC(=O)NC2=O)CCN1CC1CCN(C(=O)c2ccc(C3CCN(Cc4cc5c(-c6ccc(N)nc6)ccnc5n4C)CC3)cc2)CC1 (single isomer, unassigned) [Example 3e19] | 20.9 | 0.7 |  |
| C[C@H]1CN(Cc2cc3c(cc2F)n([C@@H]2CCC(=O)NC2=O)c(=O)n3C2CC2)CCN1CC1CCN(C(=O)c2ccc(C3CCN([C@@H](C)c4cc5c(-c6ccc(N)nc6)ccnc5n4C)CC3)cc2)CC1 (single isomer, unassigned) [Example 3e61] | 3.5 | 1.4 |  |
| C[C@@H](c1cc2c(-c3ccc(N)nc3)ccnc2n1C)N1CCC(c2ccc(C(=O)N3CCC(CN4CCN(Cc5ccc6c(c5)n(C)c(=O)n6C5CCC(=O)NC5=O)C[C@@H]4C(F)(F)F)CC3)cc2)CC1 (stereo partly drawn) [Example 3e42, 3-(5-(((R)-4-((1-(4-(1-((S)-1-(4-(6-aminopyridin-3-yl)-1-methyl-1H-pyrrolo[2,3-b]pyridin-2-yl)-ethyl)piperidin-4-yl)benzoyl)piperidin-4-yl)methyl)-3-(trifluoromethyl)piperazin-1-yl)methyl)-3-methyl-2-oxo-2,3-dihydro-1H-benzo[d]imidazol-1-yl)piperidine-2,6-dione] | 3.4 | 1.8 |  |

Further lines, results first:

| EC50 (eotaxin-3 release) [nM] | DC50 (STAT6) [nM] | Emax (STAT6; read-out: STAT6 degradation Emax (%)) [%] | Compound |
| --- | --- | --- | --- |
| 1.2 | 0.2 |  | C[C@H]1CN(Cc2cc3c(cc2F)n([C@H]2CCC(=O)NC2=O)c(=O)n3C)CCN1CC1CCN(C(=O)c2ccc(C3CCN([C@@H](C)c4cc5c(-c6ccc(N)nc6)ccnc5n4C)CC3)cc2)CC1 (single isomer, unassigned) [Example 3e63] |
| 1.2 | 0.3 |  | C[C@H]1CN(Cc2cc3c(cc2F)n([C@@H]2CCC(=O)NC2=O)c(=O)n3C)CCN1CC1CCN(C(=O)c2ccc(C3CCN([C@@H](C)c4cc5c(-c6ccc(N)nc6)ccnc5n4C)CC3)cc2)CC1 (single isomer, unassigned) [Example 3e60] |
| 1.8 | 0.4 |  | C[C@H]1CN(Cc2cc3c(cc2F)n(C2CCC(=O)NC2=O)c(=O)n3C)CCN1CC1CCN(C(=O)c2ccc(C3CCN([C@@H](C)c4cc5c(-c6ccc(N)nc6)ccnc5n4C)CC3)cc2)CC1 (mixture of isomers) [Example 3e34, 3-(5-(((S)-4-((1-(4-(1-((S)-1-(4-(6-aminopyridin-3-yl)-1-methyl-1H-pyrrolo[2,3-b]pyridin-2-yl)ethyl)piperidin-4-yl)benzoyl)piperidin-4-yl)methyl)-3-methylpiperazin-1-yl)methyl)-6-fluoro-3-methyl-2-oxo-2,3-dihydro-1H-benzo[d]imidazol-1-yl)piperidine-2,6-dione] |
| 3.9 | 1.4 |  | C[C@H]1CN(Cc2ccc3c(c2)C2(CC2)C(=O)N3C2CCC(=O)NC2=O)CCN1CC1CCN(C(=O)c2cc(F)c(C3CCN(Cc4cc5c(-c6ccc(N)nc6)ccnc5n4C)CC3)c(F)c2)CC1 (stereo partly drawn) [Example 3h24, 3-(5′-(((S)-4-((1-(4-(1-((4-(6-aminopyridin-3-yl)-1-methyl-1H-pyrrolo[2,3-b]pyridin-2-yl)methyl)piperidin-4-yl)-3,5-difluorobenzoyl)piperidin-4-yl)methyl)-3-methylpiperazin-1-yl)methyl)-2′-oxospiro[cyclopropane-1,3′-indolin]-1′-yl)piperidine-2,6-dione] |
| 7.1 | 1.7 |  | CNc1ccc(-c2ccnc3c2cc(CN2CCC(c4c(F)cc(C(=O)N5CCC(CN6CCN(Cc7ccc8c(c7)C7(CC7)C(=O)N8C7CCC(=O)NC7=O)C[C@@H]6C)CC5)cc4F)CC2)n3C)cn1 (stereo partly drawn) [Example 3h38, 3-(5′-(((S)-4-((1-(3,5-difluoro-4-(1-((1-methyl-4-(6-(methylamino)pyridin-3-yl)-1H-pyrrolo [2,3-b]pyridin-2-yl)methyl)piperidin-4-yl)benzoyl)piperidin-4-yl)methyl)-3-methylpiperazin-1-yl)methyl)-2′-oxospiro[cyclopropane-1,3′-indolin]-1′-yl)piperidine-2,6-dione] |
| 3.1 | 1.4 |  | CNc1ccc(-c2ccnc3c2cc([C@H](C)N2CCC(c4ccc(C(=O)N5CCC(CN6CCN(Cc7ccc8c(c7)n(C7CC7)c(=O)n8[C@H]7CCC(=O)NC7=O)C[C@@H]6C)CC5)cc4)CC2)n3C)cn1 (single isomer, unassigned) [Example 3h26] |
| 12.3 | 6.3 |  | CNc1ccc(-c2ccnc3c2cc([C@H](C)N2CC=C(c4c(C)cc(C(=O)N5CCC(CN6CCN(Cc7ccc8c(c7)C(C)(C)C(=O)N8C7CCC(=O)NC7=O)C[C@@H]6C)CC5)cc4F)CC2)n3C)cn1 (stereo partly drawn) [Example 3h18, 3-(5-(((S)-4-((1-(3-fluoro-5-methyl-4-(1-((S)-1-(1-methyl-4-(6-(methylamino)pyridin-3-yl)-1H-pyrrolo[2,3-b]pyridin-2-yl)ethyl)-1,2,3,6-tetrahydropyridin-4-yl)benzoyl)piperidin-4-yl)methyl)-3-methylpiperazin-1-yl)methyl)-3,3-dimethyl-2-oxoindolin-1-yl)piperidine-2,6-dione] |

Source: patent US20250325677A1, “STAT6 DEGRADERS” (Gilead Sciences, Inc., priority 2024, published 2025)
